Results as given in US12325880B2, “Identification of PDE3 modulator responsive cancers” (THE BROAD INSTITUTE, INC., priority 2018, dated 2025).

Key:
Type in all cases: cell-based
HeLa cells = experiment: 72 h Cell Titer Glo viability, HeLa; design: AUC: unit not given beside the values
Protocol: (§1) To measure cancer cell death in response to 6-(4-(diethylamino)-3-nitrophenyl)-5-methyl-4,5-dihydropyridazin-3(2H)-one (DN/DP) treatment, cells were plated in 384w assay plates at the following cell density per well: 500 cells of HeLa (DMEM), A2058 (DMEM), HMCB (EMEM), IGR37 (DMEM), NCIH1734 (RPMI), 750 cells of CAL51 (DMEM), COL0741 (RPMI), DKMG (RPMI), GB1 (EMEM), HEL (RPMI), HEL9217 (RPMI), JHUEM1 (DMEM+F12), L3.3 (RPMI) and TE4 (RPMI), HCC15 (RPMI), UACC257 (RPMI), 1000 cells for HUT78 (IMEM), NCIH1563 (RPMI), NCIH2122 (RPMI), NCIH2172 (RPMI), RVH421 (RPMI) and SKMEL3 (McCoy's 5A), 1500 cells for C32 (EMEM), HS578T (DMEM) and JHOM1 (DMEM+F12). Cells were incubated at 37° C. overnight and then treated with a DNMDP dose dilution series using an HP D300 digital dispenser. After 72 hours, the viability of cells in each well were measured by Cell Titer Glo (Promega G755B and G756B). Percent viability values were determined using the values from untreated wells and AUC values were calculated using a 4-parameter fit. DNMDP was purchased from Life Chemicals (F1638-0042) and trequinsin was purchased from Sigma-Aldrich (T2057).
(§2) PDE3A CRISPR KO cells (sgRNA #2) were generated according to de Waal et al, 2016 (2), hereby incorporated by reference in its entirety. CRISPR target sites for PDE3B and AIP were identified using the CHOPCHOP CRISPR Design Tool (chopchop.cbu.uib.no). For cloning of sgRNAs, forward and reverse oligos were annealed, phosphorylated and ligated into a BsmBI-digested lentiCRISPRv2 vector. Lentivirus carrying each guide construct was packaged as described above and used to infect target cells. Transduced target cells were selected using 1 μg/ml puromycin and passaged for 7 days before use.

IGR37 melanoma cell line = experiment: 72 h Cell Titer Glo viability, IGR37; design: unit not given beside the values; details: 72 h Cell Titer Glo dose response, AUC on a scale from 0-4
Protocol: as §1

[1] = tested on: COLO741 melanoma cell line; experiment: 72 h Cell Titer Glo viability, COLO741; design: unit not given beside the values; details: 72 h Cell Titer Glo dose response, AUC on a scale from 0-4
Protocol: as §1

[2] = tested on: SKMEL3 melanoma cell line; experiment: 72 h Cell Titer Glo viability, SKMEL3; design: unit not given beside the values; details: 72 h Cell Titer Glo dose response, AUC on a scale from 0-4
Protocol: as §1

HMCB melanoma cell line = experiment: 72 h Cell Titer Glo viability, HMCB; design: unit not given beside the values; details: 72 h Cell Titer Glo dose response, AUC on a scale from 0-4
Protocol: as §1

A2058 melanoma cell line = experiment: 72 h Cell Titer Glo viability, A2058; design: unit not given beside the values; details: 72 h Cell Titer Glo dose response, AUC on a scale from 0-4
Protocol: as §1
PDE3A CRISPR KO cells (sgRNA #2) were generated according to de Waal et al, 2016 (2), hereby incorporated by reference in its entirety. CRISPR target sites for PDE3B and AIP were identified using the CHOPCHOP CRISPR Design Tool (chopchop.cbu.uib.no). […]

C32 melanoma cell line = experiment: 72 h Cell Titer Glo viability, C32; design: AUC: unit not given beside the values
Protocol: as §1

[3] = tested on: UACC257 melanoma cell line; experiment: 72 h Cell Titer Glo viability, UACC257; design: AUC: unit not given beside the values
Protocol: as §1

[4] = tested on: RVH421 melanoma cell line; experiment: 72 h Cell Titer Glo viability, RVH421
Protocol: as §1

PDE3A-SLFN12 complex = molecular target: T1, PDE3A-SLFN12 complex (Homo sapiens, UniProt Q14432); experiment: PDE3A immunoprecipitation / immunoblot for PDE3A-SLFN12 complex formation in HeLa cells; details: for complex formation between PDE3A and FLAG-tagged SLFN12 with AIP knocked out (FIG. 8B) / complex formation between PDE3A and FLAG-tagged SLFN12 (FIG. 8B): HeLa cells, anti-PDE3A pull down, 10 μM compound; for complex formation between PDE3A and FLAG-tagged SLFN12 with AIP knocked out (FIG. 8B): AIP Crispr knockout (KO sg2, KO sg3)
T1 construct: immunoprecipitated endogenous PDE3A; endogenous in cells; host or cells: HeLa cells, parental or AIP CRISPR knockout; PDE3A is endogenous; SLFN12 is ectopically expressed
Protocol: Because decreased PDE3A protein expression could impact DNMDP-induced PDE3A-SLFN12 complex formation, the effects of AIP knockout on this complex formation were also measured. As there is no good antibody for SLFN12 protein, we ectopically expressed V5-tagged SLFN12 in parental or AIP-knockout HeLa cells, immunoprecipitated endogenous PDE3A, and assessed whether V5-SLFN12 could be detected in the immunoprecipatites. Cells were plated in 10 cm petri dishes and collected at 50-90% confluence. For PDE3A immunoblotting in biomarker positive cells and in AIP KO cells, cells were seeded in 15 cm plates at similar density as in viability assays with a vessel scaling factor of 5000, e.g., 500 cells per well was scaled to 10^6 cells per 10 cm plate or 2.5×10^6 cells per 15 cm plate, and then cultured for 72 hours before collection. Cell pellets were lysed at 4° C. for 20 minutes in modified RIPA buffer (150 mM NaCl, 10% glycerol, 50 mM Tris-Cl pH 8.0, 50 mM MgCl2, 1% NP-40) supplemented with EDTA-free protease inhibitors (Sigma-Aldrich 4693159001) and PhosSTOP phosphatase inhibitors (Sigma-Aldrich 4906837001). Lysates were clarified by centrifugation at 13,000 rpm×10 min at 4° C. and quantified using BCA protein assays (Thermo Fisher Scientific 23225). Clarified lysates were resolved on 4-12% Bis-Tris PAGE gels, transferred to nitrocellulose membranes (Thermo Fisher Scientific IB23001) and immunoblotted with primary antibodies against PDE3A (Bethyl 302-740A, 1:2000), V5 (Life Technologies R96205 at 1:5,000), AIP (Thermo Fisher Scientific MA3-16515 at 1:2000), Vinculin (Sigma-Aldrich V9264 at 1:5,000), GAPDH (Cell Signaling Technology 2118 at 1:2000) and secondary antibodies from LiCOR Biosciences (92632210 and 926068021, each at 1:10,000). Blots were washed and imaged using a LiCOR Odyssey infrared imager, and fluorescent signals quantified using the Image Studio software provided by the LiCOR manufacturer.

[5] = tested on: A2058 and SKMEL3 cells with CRISPR KO of SLFN12; experiment: 72 h Cell Titer-Glo survival of cells with CRISPR KO of SLFN12; details: CRISPR KO of SLFN12 (sg4)
Protocol: A2058 and SKMEL3 are representative melanoma cell lines. Survival is measured with a 72 h Cell Titer-Glo assay and CRISPR was performed with sg4, SLFN12 CRISPR guide RNA #4.
as §2
FIG. 3A illustrates the survival of cells in the presence of DNMDP that have had CRISPR knockout of SLFN12. FIG. 3B illustrates the survival of cells in the presence of DNMDP that have had CRISPR knockout of PDE3A (with and without ectopic expression of PDE3B). […] The survival in FIGS. 3A and 3B was measured with a 72 h Cell Titer-Glo assay and CRISPR was performed with sg4, SLNF12 CRISPR guide RNA #4.

T1 sequence (Q14432 whole entry): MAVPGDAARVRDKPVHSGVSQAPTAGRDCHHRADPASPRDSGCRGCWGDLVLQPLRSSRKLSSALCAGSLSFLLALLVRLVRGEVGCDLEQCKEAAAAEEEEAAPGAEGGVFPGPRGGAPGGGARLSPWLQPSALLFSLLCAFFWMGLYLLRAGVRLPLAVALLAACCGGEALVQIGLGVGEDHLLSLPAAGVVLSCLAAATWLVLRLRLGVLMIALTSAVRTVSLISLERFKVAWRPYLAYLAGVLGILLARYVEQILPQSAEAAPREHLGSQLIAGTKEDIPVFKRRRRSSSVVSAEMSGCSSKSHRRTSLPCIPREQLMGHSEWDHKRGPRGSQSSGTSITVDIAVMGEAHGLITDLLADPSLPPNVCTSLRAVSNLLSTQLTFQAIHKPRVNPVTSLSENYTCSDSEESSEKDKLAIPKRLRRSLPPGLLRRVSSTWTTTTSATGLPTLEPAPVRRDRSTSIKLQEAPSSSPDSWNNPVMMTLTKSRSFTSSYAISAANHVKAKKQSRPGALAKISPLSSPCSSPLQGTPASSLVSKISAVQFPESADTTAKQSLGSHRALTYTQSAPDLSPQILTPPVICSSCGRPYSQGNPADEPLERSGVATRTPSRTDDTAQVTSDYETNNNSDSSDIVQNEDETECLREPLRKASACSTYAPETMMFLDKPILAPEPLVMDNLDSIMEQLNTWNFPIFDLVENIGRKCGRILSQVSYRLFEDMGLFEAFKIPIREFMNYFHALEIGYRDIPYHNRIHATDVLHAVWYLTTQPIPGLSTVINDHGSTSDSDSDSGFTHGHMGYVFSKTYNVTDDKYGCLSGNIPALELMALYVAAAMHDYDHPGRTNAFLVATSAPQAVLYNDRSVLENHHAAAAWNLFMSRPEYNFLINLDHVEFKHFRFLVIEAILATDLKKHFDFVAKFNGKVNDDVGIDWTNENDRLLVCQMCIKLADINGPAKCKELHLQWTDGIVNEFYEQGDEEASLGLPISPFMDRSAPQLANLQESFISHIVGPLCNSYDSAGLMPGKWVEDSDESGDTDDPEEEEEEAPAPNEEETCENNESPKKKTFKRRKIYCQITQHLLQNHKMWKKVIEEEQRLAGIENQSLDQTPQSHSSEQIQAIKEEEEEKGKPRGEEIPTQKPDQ
T1 sequence (Q8IYM2 whole entry partner): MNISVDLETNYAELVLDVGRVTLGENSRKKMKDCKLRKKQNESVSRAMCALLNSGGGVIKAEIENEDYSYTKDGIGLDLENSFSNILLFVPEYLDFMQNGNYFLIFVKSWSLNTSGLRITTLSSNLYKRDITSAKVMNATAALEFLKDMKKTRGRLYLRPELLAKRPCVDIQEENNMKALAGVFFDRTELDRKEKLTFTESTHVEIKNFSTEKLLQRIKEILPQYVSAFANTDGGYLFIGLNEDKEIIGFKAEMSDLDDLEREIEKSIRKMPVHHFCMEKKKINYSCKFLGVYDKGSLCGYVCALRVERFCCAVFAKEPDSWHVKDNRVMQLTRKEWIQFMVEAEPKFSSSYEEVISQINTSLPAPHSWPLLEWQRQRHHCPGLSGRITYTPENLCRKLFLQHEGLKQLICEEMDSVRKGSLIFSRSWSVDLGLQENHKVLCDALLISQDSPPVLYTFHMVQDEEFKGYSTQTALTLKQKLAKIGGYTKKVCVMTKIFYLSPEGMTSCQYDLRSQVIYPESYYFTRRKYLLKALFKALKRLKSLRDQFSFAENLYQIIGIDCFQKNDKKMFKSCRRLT

| SMILES | AUC (HeLa cells; HeLa (cervical), 72 h Cell Titer Glo dose response, AUC on a scale from 0-4) | cell response after AIP knockout (FIG. 6A) (HeLa cells; HeLa cells, AIP CRISPR knockout with independent gRNAs, 72-hour Cell Titer-Glo) | sensitivity in PDE3A knockout cells with ectopic PDE3B expression (FIG. 3B) (HeLa cells; PDE3A knockout HeLa cells, ectopic expression of PDE3B, 72 h Cell Titer-Glo) | AUC (IGR37 melanoma cell line) | AUC [1] | AUC [2] | AUC (HMCB melanoma cell line) | AUC (A2058 melanoma cell line) | AUC (C32 melanoma cell line; C32 (melanoma), 72 h Cell Titer Glo dose response, AUC on a scale from 0-4) | sensitivity of cell line (dose response, FIG. 2A) (C32 melanoma cell line; C32 cells, 72 h Cell Titer-Glo) | AUC ([3]; UACC257 (melanoma, lacks AIP expression), 72 h Cell Titer Glo dose response, AUC on a scale from 0-4) | sensitivity of cell line (dose response, FIG. 2A) ([3]; UACC257 cells, 72 h Cell Titer-Glo) | AUC ([4]; RVH421 (melanoma, PDE3B/SLFN12 biomarker-positive), 72 h Cell Titer Glo dose response, AUC on a scale from 0-4) | sensitivity of cell line (dose response, FIG. 2A) ([4]; RVH421 cells, 72 h Cell Titer-Glo) | PDE3A-SLFN12 complex formation after AIP knockout (FIG. 7) (PDE3A-SLFN12 complex; AIP-knockout HeLa cells, V5-tagged SLFN12, PDE3A immunoprecipitates, 10 μM) | complex formation between PDE3A and FLAG-tagged SLFN12 with AIP knocked out (FIG. 8B) (PDE3A-SLFN12 complex) | complex formation between PDE3A and FLAG-tagged SLFN12 (FIG. 8B) (PDE3A-SLFN12 complex) | sensitivity after SLFN12 knockout (FIG. 3A) [5] | cancer cell killing in cells lacking AIP (FIG. 8A) (HeLa cells; HeLa cells having an AIP knock out (KOsg2, KOsg3)) | cervical cancer cell viability (FIG. 8A) (HeLa cells; HeLa cells, increasing concentrations) |
| --- | --- | --- | --- | --- | --- | --- | --- | --- | --- | --- | --- | --- | --- | --- | --- | --- | --- | --- | --- | --- |
| CCN(CC)c1ccc(C2=NNC(=O)CC2C)cc1[N+](=O)[O-] (stereo not shown) [DNMDP, 6-(4-(diethylamino)-3-nitrophenyl)-5-methyl-4,5-dihydropyridazin-3(2H)-one] | 0.36 | AIP knockout eliminates HeLa cell response | support DNMDP sensitivity | 1.17 | 1.19 | 1.74 | 1.85 | 2.11 | 3.13 | only partially sensitive | 4.00 | completely insensitive | 3.02 | only partially sensitive | completely abolished | not observed | induced | SLFN12 knockout abrogates all measured sensitivity |  |  |
| C[C@@H]1OC(=O)NN=C1c1ccc(-c2ccc(F)cc2)c(C(F)(F)F)c1 [Compound X, (6S)-5-[4′-fluoro-2-(trifluoromethyl)biphenyl-4-yl]-6-methyl-3,6-dihydro-2H-1,3,4-oxadiazin-2-one] |  |  |  |  |  |  |  |  |  |  |  |  |  |  |  | not observed | induced |  | no cancer cell killing was observed | reduced at increasing concentrations |
